Measurements reported in patent publication US6680177B2, “Low molecular weight heparin assay, system and reagent therefor” (Cardiovascular Diagnostics, Inc., priority 2001, dated 2004).
Where a SMILES comes first, the peptide text is derived from it. Bridges are numbered along the chain shown (N, C = ends). [ ]: non-standard residue; d: D form. hArg = N=C(N)NCCCC[C@H](N)C(=O)O; Mpa = O=C(O)CCS

Tested on: citrated whole blood (CWB)
Test: Interference testing for Rapidpoint ENOX test in citrated whole blood
Type: biochemical
Conditions: for EFFECT on ENOX test: CWB; for sensitivity of the ENOX test to the agent: in vitro, citrated whole blood

CC(=O)Oc1ccccc1C(=O)O [Aspirin]
EFFECT on ENOX test (0-300 ug/ml): No effect at 0-300 ug/ml | sensitivity of the ENOX test to the agent: insensitive

N=C(N)NCCCC[C@@H]1NC(=O)CCSSC[C@@H](C(N)=O)NC(=O)[C@@H]2CCCN2C(=O)[C@H](Cc2c[nH]c3ccccc23)NC(=O)[C@H](CC(=O)O)NC(=O)CNC1=O [Eptifibatide] ([Mpa][hArg]GDWPC-NH2; disulfide 1-7)
EFFECT on ENOX test (0-2600 ng/ml): No effect at 0-2600 ng/ml | sensitivity of the ENOX test to the agent: insensitive

O=C(c1ccccc1)c1ccc2n1CCC2C(=O)O (centres unmarked) [Ketorolac tromethamine]
EFFECT on ENOX test (0-12 ng/ml): No effect at 0-12 ng/ml

O=[N+]([O-])OCC(CO[N+](=O)[O-])O[N+](=O)[O-] [Nitroglycerin]
EFFECT on ENOX test (0-1000 ng/ml): No effect at 0-1000 ng/ml

CCCCS(=O)(=O)N[C@@H](Cc1ccc(OCCCCC2CCNCC2)cc1)C(=O)O [Tirofiban]
EFFECT on ENOX test (0-5600 ng/ml): No effect at 0-5600 ng/ml | sensitivity of the ENOX test to the agent: insensitive
